Data taken from US9738642B2, “Triazolopyridine ether derivatives and their use in neurological and pyschiatric disorders” (BRISTOL-MYERS SQUIBB COMPANY, priority 2013, dated 2017).
Structures can show the parent of a compound that is named as a salt. Where two headings read alike, the source gives them in different places.

Molecular target: T1, human mGluR2 (Homo sapiens, UniProt Q14416)
T1 construct: expressed in transfected cells; host or cells: HEK293 clonal line
Test: mGluR2 cAMP assay
Type: cell-based
Conditions: clonally expressed human mGluR2 in HEK293, 1 μM forskolin, 1 μM LY-341495, 30 min, CISBIO cAMP kit
Procedure: On the day of the assay, media was removed, cells washed with PBS, cells harvested and pelleted by centrifugation. Cell pellets were resuspended in stimulation buffer without forskolin and counted. […] A standard curve was created using a top concentration of cAMP of 1 μM in the stimulation buffer, 1:3 dilutions over 14 points in the absence of cells. […] In house software converted the fluorescence value ratios to units of cAMP concentration, which is then used to calculate % inhibition for each test compound. MGluR2 cAMP Assay Materials and Methods. […] Buffer without forskolin was used as a negative control. Solutions of D2 and cryptate detection reagents from the CISBIO dynamic cAMP kit (62AM4PEJ) were diluted 1:40 in lysis buffer. Lysis buffer consisted of 50 mM Phosphate Buffer pH 7.0, 800 mM Potassium Fluoride, 0.2% BSA, and 1.0% Triton. Assay reaction was terminated by addition of detection reagents in lysis buffer. One hour later, plates were read on a PE Viewlux. Data was extracted, and concentration response curves generated by fitting the data to a standard 4 parameter logistic equation from which EC50 values were determined.

[1] = read-out: EC50 (nM), activity in mGluR2 cAMP assay

T1 sequence (Q14416 19-872): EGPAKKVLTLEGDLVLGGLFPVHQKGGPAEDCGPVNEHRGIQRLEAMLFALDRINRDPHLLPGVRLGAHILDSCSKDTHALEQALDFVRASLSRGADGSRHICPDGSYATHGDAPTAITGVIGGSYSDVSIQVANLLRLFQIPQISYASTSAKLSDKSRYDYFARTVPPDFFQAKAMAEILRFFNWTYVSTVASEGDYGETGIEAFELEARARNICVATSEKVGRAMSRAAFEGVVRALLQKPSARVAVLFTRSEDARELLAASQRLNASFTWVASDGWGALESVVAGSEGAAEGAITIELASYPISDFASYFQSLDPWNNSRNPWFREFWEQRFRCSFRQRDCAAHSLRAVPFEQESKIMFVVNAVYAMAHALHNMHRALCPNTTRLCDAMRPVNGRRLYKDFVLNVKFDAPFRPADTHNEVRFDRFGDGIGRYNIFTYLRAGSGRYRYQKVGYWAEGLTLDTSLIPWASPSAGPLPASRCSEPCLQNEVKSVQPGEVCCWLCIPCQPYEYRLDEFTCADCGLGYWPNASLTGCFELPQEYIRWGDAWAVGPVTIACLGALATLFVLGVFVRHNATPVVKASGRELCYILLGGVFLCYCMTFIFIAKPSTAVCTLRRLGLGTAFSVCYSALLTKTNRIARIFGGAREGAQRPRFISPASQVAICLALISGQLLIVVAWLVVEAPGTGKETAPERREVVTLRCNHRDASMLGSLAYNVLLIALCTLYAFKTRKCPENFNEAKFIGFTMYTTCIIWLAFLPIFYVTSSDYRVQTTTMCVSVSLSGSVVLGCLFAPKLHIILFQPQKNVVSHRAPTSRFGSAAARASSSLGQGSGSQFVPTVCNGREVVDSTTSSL

Row | Structure (SMILES) | EC50 [1] | EC50 (EC50 (nM), activity in mGluR2 cAMP assay)
1 | CC(COc1ccn2c(CC3CC3)nnc2c1C(F)(F)F)c1ccc(F)cc1 (racemic) [Example 4, 3-(Cyclopropylmethyl)-7-(2-(4-fluorophenyl)propoxy)-8-(trifluoromethyl)-[1,2,4]triazolo[4,3-a]pyridine, TFA salt] | 10 nM | 
2 | CC(COc1ccn2c(CC3CC3)nnc2c1C(F)(F)F)c1c(F)cccc1Cl (racemic) [Example 5, 7-(2-(2-Chloro-6-fluorophenyl)propoxy)-3-(cyclopropylmethyl)-8-(trifluoromethyl)-[1,2,4]triazolo[4,3-a]pyridine] | 1 nM | 
3 | CC(C#N)(COc1ccn2c(CC3CC3)nnc2c1C(F)(F)F)c1ccc(F)cc1 (racemic) [Example 12, 3-(3-(Cyclopropylmethyl)-8-(trifluoromethyl)-[1,2,4]triazolo[4,3-a]pyridin-7-yloxy)-2-(4-fluorophenyl)-2-methylpropanenitrile, TFA salt] | 130 nM | 
4 | COC(C)(COc1ccn2c(CC3CC3)nnc2c1C(F)(F)F)c1ccc(F)cc1 (racemic) [Example 21, 3-(Cyclopropylmethyl)-7-(2-(4-fluorophenyl)-2-methoxypropoxy)-8-(trifluoromethyl)-[1,2,4]triazolo[4,3-a]pyridine] | 31 nM | 
5 | FC(F)(F)c1c(OC[C@H]2C[C@@H]2c2ccc(Cl)cc2)ccn2c(CC3CC3)nnc12 (racemic) [Example 31, (±)-7-(((1S,2S)-2-(4-chlorophenyl)cyclopropyl)methoxy)-3-(cyclopropylmethyl)-8-(trifluoromethyl)-[1,2,4]triazolo[4,3-a]pyridine] | 1.3 nM | 
6 | COc1cccc(F)c1[C@H]1C[C@@H]1COc1ccn2c(CC3CC3)nnc2c1C(F)(F)F (racemic) [Example 32, (±)-3-(Cyclopropylmethyl)-7-(((1S,2S)-2-(2-fluoro-6-methoxyphenyl)cyclopropyl)methoxy)-8-(trifluoromethyl)-[1,2,4]triazolo[4,3-a]pyridine] | 0.3 nM | 
7 | COc1ccccc1[C@H]1C[C@@H]1COc1ccn2c(CC3CC3)nnc2c1C(F)(F)F (racemic) [Example 37, (±)-3-(Cyclopropylmethyl)-7-(((1S,2S)-2-(2-methoxyphenyl)cyclopropyl)methoxy)-8-(trifluoromethyl)-[1,2,4]triazolo[4,3-a]pyridine] | 0.2 nM | 
8 | FC(F)(F)Oc1ccccc1[C@H]1C[C@@H]1COc1ccn2c(CC3CC3)nnc2c1C(F)(F)F (racemic) [Example 38, (±)-3-(Cyclopropylmethyl)-7-(((1S,2S)-2-(2-(trifluoromethoxy)phenyl)cyclopropyl)methoxy)-8-(trifluoromethyl)-[1,2,4]triazolo[4,3-a]pyridine] | 1.4 nM | 
9 | Fc1ccccc1[C@H]1C[C@@H]1COc1ccn2c(CC3CC3)nnc2c1C(F)(F)F (racemic) [Example 43, (±)-3-(Cyclopropylmethyl)-7-(((1S,2S)-2-(2-fluorophenyl)cyclopropyl)methoxy)-8-(trifluoromethyl)-[1,2,4]triazolo[4,3-a]pyridine] | 1.4 nM | 
10 | Fc1ccc(F)c([C@H]2C[C@@H]2COc2ccn3c(CC4CC4)nnc3c2C(F)(F)F)c1 (racemic) [Example 44, (±)-3-(Cyclopropylmethyl)-7-(((1S,2S)-2-(2,5-difluorophenyl)cyclopropyl)methoxy)-8-(trifluoromethyl)-[1,2,4]triazolo[4,3-a]pyridine] | 1.9 nM | 
11 | COc1ccc([C@H]2C[C@@H]2COc2ccn3c(CC4CC4)nnc3c2C(F)(F)F)cc1 (racemic) [Example 45, (±)-3-(Cyclopropylmethyl)-7-(((1S,2S)-2-(4-methoxyphenyl)cyclopropyl)methoxy)-8-(trifluoromethyl)-[1,2,4]triazolo[4,3-a]pyridine] | 1.3 nM | 
12 | COc1c(F)ccc(F)c1[C@H]1C[C@@H]1COc1ccn2c(CC3CC3)nnc2c1C(F)(F)F (racemic) [Example 47, (±)-3-(Cyclopropylmethyl)-7-(((1S,2S)-2-(3,6-difluoro-2-methoxyphenyl)cyclopropyl)methoxy)-8-(trifluoromethyl)-[1,2,4]triazolo[4,3-a]pyridine] | 0.8 nM | 
13 | Fc1cccc(Cl)c1[C@H]1C[C@@H]1COc1ccn2c(CC3CC3)nnc2c1C(F)(F)F (racemic) [Example 48, (±)-7-(((1S,2S)-2-(2-chloro-6-fluorophenyl)cyclopropyl)methoxy)-3-(cyclopropylmethyl)-8-(trifluoromethyl)-[1,2,4]triazolo[4,3-a]pyridine] | 0.5 nM | 
14 | COc1cc(F)ccc1[C@H]1C[C@@H]1COc1ccn2c(CC3CC3)nnc2c1C(F)(F)F (racemic) [Example 49, (±)-3-(Cyclopropylmethyl)-7-(((1S,2S)-2-(4-fluoro-2-methoxyphenyl)cyclopropyl)methoxy)-8-(trifluoromethyl)-[1,2,4]triazolo[4,3-a]pyridine] | 0.4 nM | 
15 | Fc1ccc([C@H]2C[C@@H]2COc2ccn3c(CC4CC4)nnc3c2C(F)(F)F)cc1 (racemic) [Example 77, (±)-3-(Cyclopropylmethyl)-7-(((1S,2S)-2-(4-fluorophenyl)cyclopropyl)methoxy)-8-(trifluoromethyl)-[1,2,4]triazolo[4,3-a]pyridine] |  | 1.7 nM
16 | FC(COc1ccn2c(CC3CC3)nnc2c1C(F)(F)F)c1ccccc1 (racemic) [Example 84, 3-(Cyclopropylmethyl)-7-(2-fluoro-2-phenylethoxy)-8-(trifluoromethyl)-[1,2,4]triazolo[4,3-a]pyridine] | 5.8 nM | 
17 | FC(F)(F)c1c(OCc2ccccc2)ccn2c(CC3CC3)nnc12 (racemic) [Example 85, 7-(Benzyloxy)-3-(cyclopropylmethyl)-8-(trifluoromethyl)-[1,2,4]triazolo[4,3-a]pyridine] | 25 nM | 

Row | Structure (SMILES) | EC50 [1] | EC50 (EC50 (nM), activity in mGluR2 cAMP assay)
18 | CO[C@]1(c2ccc(F)cc2)CC[C@H](Oc2ccn3c(C4CC4(F)F)nnc3c2C(F)(F)F)CC1 (mixture of isomers) [Example 86, (±)-3-(2,2-Difluorocyclopropyl)-7-((1s,4s)-4-(4-fluorophenyl)-4-methoxycyclohexyloxy)-8-(trifluoromethyl)-[1,2,4]triazolo[4,3-a]pyridine] | 6.9 nM | 
19 | CO[C@]1(c2ccc(F)cc2)CC[C@H](Oc2ccn3c(C4CC4(C)C)nnc3c2C(F)(F)F)CC1 (mixture of isomers) [Example 94, 3-(2,2-Dimethylcyclopropyl)-7-((1s,4s)-4-(4-fluorophenyl)-4-methoxycyclohexyloxy)-8-(trifluoromethyl)-[1,2,4]triazolo[4,3-a]pyridine] | 12 nM | 
20 | Fc1ccc([C@H]2C[C@H](Oc3ccn4c(C5CC5(F)F)nnc4c3C(F)(F)F)C2)cc1 (mixture of isomers) [Example 98, (±)-3-(2,2-Difluorocyclopropyl)-7-((1r,3r)-3-(4-fluorophenyl)cyclobutoxy)-8-(trifluoromethyl)-[1,2,4]triazolo[4,3-a]pyridine] | 5.1 nM | 
21 | CO[C@]1(c2ccc(F)cc2)CC[C@H](Oc2ccn3c([C@@H]4C[C@H]4F)nnc3c2C(F)(F)F)CC1 (relative stereo) [Example 89, (±)-rel-3-((1S,2R)-2-Fluorocyclopropyl)-7-((1s,4s)-4-(4-fluorophenyl)-4-methoxycyclohexyloxy)-8-(trifluoromethyl)-[1,2,4]triazolo[4,3-a]pyridine] | 41 nM | 
22 | C[C@@H](COc1ccn2c(CC3CC3)nnc2c1C(F)(F)F)c1c(F)cccc1Cl (single isomer, unassigned) [Example 9] | 0.8 nM | 
23 | C[C@H](COc1ccn2c(CC3CC3)nnc2c1C(F)(F)F)c1c(F)cccc1Cl (single isomer, unassigned) [Example 10] | 0.8 nM | 
24 | C[C@@](C#N)(COc1ccn2c(CC3CC3)nnc2c1C(F)(F)F)c1ccc(F)cc1 (single isomer, unassigned) [Example 14] | 230 nM | 
25 | C[C@](C#N)(COc1ccn2c(CC3CC3)nnc2c1C(F)(F)F)c1ccc(F)cc1 (single isomer, unassigned) [Example 15] | 80 nM | 
26 | CO[C@@](C)(COc1ccn2c(CC3CC3)nnc2c1C(F)(F)F)c1ccc(F)cc1 (single isomer, unassigned) [Example 24] | 36 nM | 
27 | CO[C@](C)(COc1ccn2c(CC3CC3)nnc2c1C(F)(F)F)c1ccc(F)cc1 (single isomer, unassigned) [Example 25] | 25 nM | 
28 | COc1cccc(F)c1[C@H]1C[C@@H]1COc1ccn2c(CC3CC3)nnc2c1C(F)(F)F (single isomer, unassigned) [Example 35] | 0.2 nM | 
29 | COc1cccc(F)c1[C@@H]1C[C@H]1COc1ccn2c(CC3CC3)nnc2c1C(F)(F)F (single isomer, unassigned) [Example 36] | 0.2 nM | 
30 | COc1ccccc1[C@H]1C[C@@H]1COc1ccn2c(CC3CC3)nnc2c1C(F)(F)F (single isomer, unassigned) [Example 39] | 0.6 nM | 
31 | COc1ccccc1[C@@H]1C[C@H]1COc1ccn2c(CC3CC3)nnc2c1C(F)(F)F (single isomer, unassigned) [Example 40] | 1.4 nM | 
32 | FC(F)(F)Oc1ccccc1[C@H]1C[C@@H]1COc1ccn2c(CC3CC3)nnc2c1C(F)(F)F (single isomer, unassigned) [Example 41] | 2.2 nM | 
33 | FC(F)(F)Oc1ccccc1[C@@H]1C[C@H]1COc1ccn2c(CC3CC3)nnc2c1C(F)(F)F (single isomer, unassigned) [Example 42] | 1.9 nM | 
